{"source": "patent US12213483B1", "about": "“Herbicidal compositions comprising trifludimoxazin” (BASF SE, priority 2024, dated 2025)", "type_in_all_cases": "in vivo", "key": {"Avena fatua (AVEFA) [1]": {"system": "Avena fatua (AVEFA)", "assay": "Post-emergence application in greenhouse trials, AVEFA", "conditions": "20 DAT; growth stage 13; 0.3 g ai/ha", "method": "(§1) In the examples below, using the method of S. R. Colby (1967) “Calculating synergistic and antagonistic responses of herbicide combinations”, Weeds 15, p. 22ff., the value E, which is expected if the activity of the individual active compounds is only additive, was calculated: E=X+Y−(X·Y/100) • where • X=percent activity using active herbicide A at an application rate a; • Y=percent activity using active trifludimoxazin at an application rate b; • E=expected activity (in %) by A+B at application rates a+b.\n(§2) If the value found experimentally is higher than the value E calculated according to Colby, a synergistic effect is present.\n(§3) The culture containers used were plastic pots containing loamy sand with approximately 3.0% of humus as substrate. The seeds of the test plants were sown separately for each species.\n(§4) For the post-emergence treatment, the test plants were grown to a plant height of from 3 to 15 cm, depending on the plant habit, and only then treated with the active compounds which had been suspended or emulsified in water. To this end, the test plants were either sown directly, and grown in the same containers, or they were first grown separately as seedlings and transplanted into the test containers a few days prior to treatment.\n(§5) Depending on the species, the plants were kept at 10-25° C. and 20-35° C., respectively.\n(§6) The test period extended over 2 to 4 weeks. During this time, the plants were tended and their response to the individual treatments was evaluated.\n(§7) Evaluation was carried out using a scale from 0 to 100. 100 means no emergence of the plants, or complete destruction of at least the above-ground parts, and 0 means no damage or normal course of growth. A good herbicidal activity is given at values of at least 70, and very good herbicidal activity is given at values of at least 85.\n(§8) In the greenhouse trials, unless indicated otherwise, herbicide A, trifludimoxazin and saflufenacil were formulated (50 g/I) and applied with addition of 1% MSO (methylated seed oil) as adjuvant. The solvent used was water (200 I/ha)."}, "Avena fatua (AVEFA) [2]": {"system": "Avena fatua (AVEFA)", "assay": "Post-emergence application in field trials, AVEFA", "conditions": "29 DAT; water volume 100 l/ha; pre plant burndown; growth stage 14-23; height 24-40 cm; 18 g ai/ha", "method": "as §1, §2\n(§9) On field test sites, natural weed infestation or seeded weeds were treated post-emergence of the weeds.\n(§10) In the field trials, the weedy plants were treated as indicated below.\n(§11) Herbicide A-1 (342 g/I), trifludimoxazin (500 g/I) and saflufenacil (342 g/I) were, together with addition of 1% MSO (methylated seed oil) as adjuvant (unless indicated otherwise), formulated in water as distribution medium as indicated and sprayed with commercial flat fan nozzles.\n(§12) In the following experiments, the herbicidal activity for the individual herbicidal compositions (solo and mixture applications) was assessed at the indicated days after treatment (DAT). The assessments for the damage on undesired weeds caused by the composition was carried out using a scale from 0 to 100%, compared to the untreated control plants. Here, 0 means no damage and 100 means complete destruction of the plants.\n(§13) Herbicide A-1 (100 g/l) and trifludimoxazin (500 g/l) were, together with addition of 1% MSO (methylated seed oil) as adjuvant (unless indicated otherwise), formulated in water as distribution medium as indicated and sprayed with commercial flat fan nozzles."}, "[3]": {"system": "Digitaria sanguinales (DIGSA)", "assay": "Post-emergence application in greenhouse trials, DIGSA", "conditions": "7 DAT; GS 12; C-1 0.3 g ai/ha", "method": "as §1, §2, §3, §4, §5, §6, §7, §8"}, "[4]": {"system": "Abutilon theophrasti (ABUTH)", "assay": "Post-emergence application in greenhouse trials, ABUTH", "method": "as §1, §2, §3, §4, §5, §6, §7, §8"}, "[5]": {"system": "Lolium multiflorum (LOLMU)", "assay": "Post-emergence application in greenhouse trials, LOLMU", "conditions": "20 DAT; growth stage 13; 0.3 g ai/ha", "method": "as §1, §2, §3, §4, §5, §6, §7, §8"}, "Hordeum vulgare (HORVS)": {"system": "Hordeum vulgare (HORVS)", "assay": "Post-emergence application in field trials, HORVS", "conditions": "29 DAT; water volume 100 l/ha; pre plant burndown; growth stage 15-24; height 25-45 cm; 18 g ai/ha", "method": "as §1, §2, §9, §10, §11, §12, §13"}, "[6]": {"system": "Sorghum halapense (SORHA)", "assay": "Post-emergence application in greenhouse trials, SORHA", "conditions": "20 DAT; growth stage 14; 0.9 g ai/ha", "method": "as §1, §2, §3, §4, §5, §6, §7, §8"}, "Setaria viridis (SETVI)": {"system": "Setaria viridis (SETVI)", "assay": "Post-emergence application in greenhouse trials, SETVI", "method": "as §1, §2, §3, §4, §5, §6, §7, §8"}, "[7]": {"system": "Commelina benghalensis (COMBE)", "assay": "Post-emergence application in greenhouse trials, COMBE", "conditions": "20 DAT; growth stage 21; 0.9 g ai/ha", "method": "as §1, §2, §3, §4, §5, §6, §7, §8"}, "Kochia scoparia (KCHSC)": {"system": "Kochia scoparia (KCHSC)", "assay": "Post-emergence application in greenhouse trials, KCHSC", "method": "as §1, §2, §3, §4, §5, §6, §7, §8"}}, "note": "Values joined by “and” are separate entries in the source; they are usually repeats but may differ in a detail not shown here. Identical values can stand only once.", "data": [{"smiles": "CC(C)N(C)S(=O)(=O)NC(=O)c1cc(-n2c(=O)cc(C(F)(F)F)n(C)c2=O)c(F)cc1Cl", "note": "[C-1, saflufenacil]", "values": [{"measurement": "% Herbicidal activity", "setting": "Avena fatua (AVEFA) [1]", "result": 0, "unit": "%"}, {"measurement": "% Herbicidal activity", "setting": "Avena fatua (AVEFA) [2]", "result": 0, "unit": "%"}, {"measurement": "% Herbicidal activity", "setting": "[3]", "result": "10% and 15%"}, {"measurement": "% Herbicidal activity", "setting": "[4]; 6 DAT, GS 33, C-1 1.1 g ai/ha", "result": 45, "unit": "%"}, {"measurement": "% Herbicidal activity", "setting": "[4]; 20 DAT, growth stage 33, 1.1 g ai/ha", "result": 0, "unit": "%"}, {"measurement": "% Herbicidal activity", "setting": "[5]", "result": 0, "unit": "%"}, {"measurement": "% Herbicidal activity", "setting": "Hordeum vulgare (HORVS)", "result": 0, "unit": "%"}, {"measurement": "% Herbicidal activity", "setting": "[6]", "result": 0, "unit": "%"}, {"measurement": "% Herbicidal activity", "setting": "Setaria viridis (SETVI); 7 DAT, GS 14, C-1 0.9 g ai/ha", "result": 35, "unit": "%"}, {"measurement": "% Herbicidal activity", "setting": "Setaria viridis (SETVI); 20 DAT, growth stage 14, 0.9 g ai/ha", "result": 35, "unit": "%"}, {"measurement": "% Herbicidal activity", "setting": "[7]", "result": 80, "unit": "%"}, {"measurement": "% Herbicidal activity", "setting": "Kochia scoparia (KCHSC); 6 DAT, GS 33, C-1 0.5 g ai/ha", "result": 60, "unit": "%"}, {"measurement": "% Herbicidal activity", "setting": "Kochia scoparia (KCHSC); 20 DAT, growth stage 33, 0.5 g ai/ha", "result": 40, "unit": "%"}, {"measurement": "% Herbicidal activity", "setting": "Kochia scoparia (KCHSC); 20 DAT, growth stage 33, 0.9 g ai/ha", "result": 60, "unit": "%"}]}]}
